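Where inhibition never reached the appropriate level, the endpoint shown equals the highest concentration tested. Otherwise, values were interpolated linearly from a five-concentration, 48-hour dose response in 96-well plates. TGI: concentration producing complete growth inhibition.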
What was measured:
Assay in all cases: growth of human tumour cells (NCI), 48 h
786-0 renal = system: 786-0 renal
A498 renal = system: A498 renal
A549 NSCLC = system: A549 NSCLC
ACHN renal = system: ACHN renal
BT-549 breast = system: BT-549 breast
CAKI-1 renal = system: CAKI-1 renal
CCRF-CEM leukemia = system: CCRF-CEM leukemia
COLO 205 colon = system: COLO 205 colon
DLD-1 colon = system: DLD-1 colon
DMS 114 small cell lung = system: DMS 114 small cell lung
DMS 273 small cell lung = system: DMS 273 small cell lung
DU-145 prostate = system: DU-145 prostate
EKVX NSCLC = system: EKVX NSCLC
HCC-2998 colon = system: HCC-2998 colon
HCT-116 colon = system: HCT-116 colon
HCT-15 colon = system: HCT-15 colon
HL-60(TB) leukemia = system: HL-60(TB) leukemia
HOP-18 NSCLC = system: HOP-18 NSCLC
HOP-62 NSCLC = system: HOP-62 NSCLC
HOP-92 NSCLC = system: HOP-92 NSCLC
HS 578T breast = system: HS 578T breast
HT29 colon = system: HT29 colon
IGROV1 ovarian = system: IGROV1 ovarian
K-562 leukemia = system: K-562 leukemia
KM12 colon = system: KM12 colon
KM20L2 colon = system: KM20L2 colon
LOX IMVI melanoma = system: LOX IMVI melanoma
LXFL 529 NSCLC = system: LXFL 529 NSCLC
M14 melanoma = system: M14 melanoma
MALME-3M melanoma = system: MALME-3M melanoma
MCF7 breast = system: MCF7 breast
MDA-MB-231 breast = system: MDA-MB-231 breast
MDA-MB-435 = system: MDA-MB-435
MDA-N = system: MDA-N
MOLT-4 leukemia = system: MOLT-4 leukemia
NCI-H226 lung = system: NCI-H226 lung
NCI-H23 lung = system: NCI-H23 lung
NCI-H460 lung = system: NCI-H460 lung
NCI-H522 lung = system: NCI-H522 lung
NCI/ADR-RES ovarian = system: NCI/ADR-RES ovarian
OVCAR-3 ovarian = system: OVCAR-3 ovarian
OVCAR-4 ovarian = system: OVCAR-4 ovarian
OVCAR-5 ovarian = system: OVCAR-5 ovarian
OVCAR-8 ovarian = system: OVCAR-8 ovarian
PC-3 prostate = system: PC-3 prostate
RPMI-8226 leukemia = system: RPMI-8226 leukemia
RXF 393 renal = system: RXF 393 renal
SF-268 CNS = system: SF-268 CNS
SF-295 CNS = system: SF-295 CNS
SF-539 CNS = system: SF-539 CNS
SK-MEL-2 melanoma = system: SK-MEL-2 melanoma
SK-MEL-28 melanoma = system: SK-MEL-28 melanoma
SK-MEL-5 melanoma = system: SK-MEL-5 melanoma
SK-OV-3 ovarian = system: SK-OV-3 ovarian
SN12C renal = system: SN12C renal
SNB-19 CNS = system: SNB-19 CNS
SNB-75 CNS = system: SNB-75 CNS
SNB-78 CNS = system: SNB-78 CNS
SR leukemia = system: SR leukemia
SW-620 colon = system: SW-620 colon
T-47D breast = system: T-47D breast
TK-10 renal = system: TK-10 renal
U251 CNS = system: U251 CNS
UACC-257 melanoma = system: UACC-257 melanoma
UACC-62 melanoma = system: UACC-62 melanoma
UO-31 renal = system: UO-31 renal
XF 498 CNS = system: XF 498 CNS
M19-MEL melanoma = system: M19-MEL melanoma
RXF-631 renal = system: RXF-631 renal

In the case of `COc1cc(-c2ccc(Nc3ccccc3C(=O)O)c(OC)c2)ccc1Nc1ccccc1C(=O)O`, the TGI (786-0 renal) was over 100 µM, the TGI (A498 renal) was over 96.5 µM and the TGI (A549 NSCLC) was over 100 µM. The TGI (ACHN renal) was over 94.6 µM, the TGI (BT-549 breast) was 57.4 µM and the TGI (CAKI-1 renal) was over 71.1 µM. For the same molecule, the TGI (CCRF-CEM leukemia) was 86.1 µM, the TGI (COLO 205 colon) was over 100 µM and the TGI (DLD-1 colon) was over 72.8 µM. For the same molecule, the TGI (DMS 114 small cell lung) was over 100 µM, the TGI (DMS 273 small cell lung) was over 100 µM and the TGI (DU-145 prostate) was 49.9 µM. For the same molecule, the TGI (EKVX NSCLC) was over 97.4 µM, the TGI (HCC-2998 colon) was over 82 µM and the TGI (HCT-116 colon) was 23.6 µM. It also gave a TGI (HCT-15 colon) of 51.6 µM, a TGI (HL-60(TB) leukemia) of 65.8 µM and a TGI (HOP-18 NSCLC) of over 100 µM. The TGI (HOP-62 NSCLC) was 49.8 µM, the TGI (HOP-92 NSCLC) was 66.9 µM and the TGI (HS 578T breast) was over 100 µM. For the same molecule, the TGI (HT29 colon) was over 100 µM, the TGI (IGROV1 ovarian) was over 100 µM and the TGI (K-562 leukemia) was over 100 µM. It also gave a TGI (KM12 colon) of over 70.9 µM, a TGI (KM20L2 colon) of over 100 µM and a TGI (LOX IMVI melanoma) of 30.9 µM. For the same molecule, the TGI (LXFL 529 NSCLC) was over 100 µM, the TGI (M14 melanoma) was over 100 µM and the TGI (MALME-3M melanoma) was over 100 µM. For the same molecule, the TGI (MCF7 breast) was over 100 µM, the TGI (MDA-MB-231 breast) was over 91.6 µM and the TGI (MDA-MB-435) was 46 µM. It also gave a TGI (MDA-N) of 97.5 µM, a TGI (MOLT-4 leukemia) of over 100 µM and a TGI (NCI-H226 lung) of 60.7 µM. The TGI (NCI-H23 lung) was 71 µM, the TGI (NCI-H460 lung) was 36.7 µM and the TGI (NCI-H522 lung) was 66.6 µM. It also gave a TGI (NCI/ADR-RES ovarian) of over 100 µM, a TGI (OVCAR-3 ovarian) of 39.1 µM and a TGI (OVCAR-4 ovarian) of over 100 µM. The TGI (OVCAR-5 ovarian) was over 87.5 µM, the TGI (OVCAR-8 ovarian) was 81.5 µM and the TGI (PC-3 prostate) was over 67.4 µM. The TGI (RPMI-8226 leukemia) was over 95.8 µM, the TGI (RXF 393 renal) was 83.3 µM and the TGI (SF-268 CNS) was over 100 µM. For the same molecule, the TGI (SF-295 CNS) was over 100 µM, the TGI (SF-539 CNS) was 45 µM and the TGI (SK-MEL-2 melanoma) was 58.6 µM. The TGI (SK-MEL-28 melanoma) was over 100 µM, the TGI (SK-MEL-5 melanoma) was over 100 µM and the TGI (SK-OV-3 ovarian) was over 100 µM. It also gave a TGI (SN12C renal) of over 73.6 µM, a TGI (SNB-19 CNS) of over 100 µM and a TGI (SNB-75 CNS) of 91.3 µM. For the same molecule, the TGI (SNB-78 CNS) was over 100 µM, the TGI (SR leukemia) was over 84.6 µM and the TGI (SW-620 colon) was over 100 µM. It also gave a TGI (T-47D breast) of over 65.7 µM, a TGI (TK-10 renal) of over 89 µM and a TGI (U251 CNS) of 37.3 µM. It also gave a TGI (UACC-257 melanoma) of over 100 µM, a TGI (UACC-62 melanoma) of 35.6 µM and a TGI (UO-31 renal) of over 58.9 µM. It also gave a TGI (XF 498 CNS) of over 100 µM.
In the case of `O=C(Cc1nc2ccc(C(=O)c3ccccc3)cc2[nH]c1=O)C(=O)Nc1ccc(C(F)(F)F)cc1[N+](=O)[O-]`, the TGI (786-0 renal) was over 100 µM, the TGI (A498 renal) was over 100 µM and the TGI (A549 NSCLC) was over 100 µM. It also gave a TGI (ACHN renal) of over 100 µM, a TGI (CAKI-1 renal) of over 100 µM and a TGI (CCRF-CEM leukemia) of 91.8 µM. The TGI (COLO 205 colon) was over 100 µM, the TGI (DLD-1 colon) was over 100 µM and the TGI (DMS 273 small cell lung) was over 100 µM. It also gave a TGI (EKVX NSCLC) of over 100 µM, a TGI (HCC-2998 colon) of over 100 µM and a TGI (HCT-116 colon) of over 100 µM. For the same molecule, the TGI (HCT-15 colon) was over 100 µM, the TGI (HL-60(TB) leukemia) was over 100 µM and the TGI (HOP-18 NSCLC) was over 100 µM. For the same molecule, the TGI (HOP-62 NSCLC) was over 100 µM, the TGI (HOP-92 NSCLC) was over 100 µM and the TGI (HT29 colon) was over 100 µM. It also gave a TGI (IGROV1 ovarian) of over 100 µM, a TGI (K-562 leukemia) of over 100 µM and a TGI (KM12 colon) of over 100 µM. It also gave a TGI (KM20L2 colon) of over 100 µM, a TGI (LOX IMVI melanoma) of over 100 µM and a TGI (LXFL 529 NSCLC) of over 100 µM. For the same molecule, the TGI (M14 melanoma) was over 100 µM, the TGI (M19-MEL melanoma) was over 100 µM and the TGI (MALME-3M melanoma) was over 100 µM. It also gave a TGI (MOLT-4 leukemia) of over 100 µM, a TGI (NCI-H226 lung) of over 100 µM and a TGI (NCI-H23 lung) of over 100 µM. The TGI (NCI-H460 lung) was over 100 µM, the TGI (NCI-H522 lung) was over 100 µM and the TGI (OVCAR-3 ovarian) was over 100 µM. It also gave a TGI (OVCAR-4 ovarian) of over 100 µM, a TGI (OVCAR-5 ovarian) of over 100 µM and a TGI (OVCAR-8 ovarian) of over 100 µM. It also gave a TGI (RPMI-8226 leukemia) of over 100 µM, a TGI (RXF-631 renal) of over 100 µM and a TGI (SF-268 CNS) of over 100 µM. It also gave a TGI (SF-295 CNS) of over 100 µM, a TGI (SF-539 CNS) of over 100 µM and a TGI (SK-MEL-2 melanoma) of over 100 µM. For the same molecule, the TGI (SK-MEL-28 melanoma) was over 100 µM, the TGI (SK-MEL-5 melanoma) was over 100 µM and the TGI (SK-OV-3 ovarian) was over 100 µM. It also gave a TGI (SN12C renal) of over 100 µM, a TGI (SNB-19 CNS) of over 100 µM and a TGI (SNB-75 CNS) of over 100 µM. It also gave a TGI (SNB-78 CNS) of over 100 µM, a TGI (SR leukemia) of over 100 µM and a TGI (SW-620 colon) of over 100 µM. For the same molecule, the TGI (TK-10 renal) was over 100 µM, the TGI (U251 CNS) was over 100 µM and the TGI (UACC-257 melanoma) was over 100 µM. For the same molecule, the TGI (UACC-62 melanoma) was over 100 µM, the TGI (UO-31 renal) was over 100 µM and the TGI (XF 498 CNS) was over 100 µM.

From PubChem BioAssay (NCI)
